Source: US12331040B2 (Karyopharm Therapeutics Inc., priority 2013, dated 2025)
Like-named read-outs stand apart in the source and are kept apart here.

What was measured:
Assay in all cases: MTT cell proliferation assay
Format in all cases: cell-based
3T3 cells = conditions: Mus musculus, NIH3T3, approximately 64-72 hours incubation
Summary of the method: (§1)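 Cytotoxicity was measured by MTT: OD490 of the solubilized formazan after roughly 4 h with MTT reagent, reported as mean percent inhibition relative to the negative control. Test compounds covered eight concentrations between 1 nM and 30 μM, added to 5,000–10,000 cells per well that had attached overnight.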

Z138 cells = conditions: Homo sapiens, Z-138, Z138 cells, approximately 64-72 hours incubation
Summary of the method: as §1

MS751 cells = conditions: Homo sapiens, approximately 64-72 hours incubation
Summary of the method: as §1

[1] = MS751, MS751 cells, read-out: MTT Assay IC50 MS-751
[2] = read-out: MTT Assay IC50, Z-138
[3] = MS751, MS751 cells, read-out: MTT Assay IC50, MS-751

| Structure (SMILES) | IC50 (3T3 cells; read-out: MTT Assay IC50 3T3) [nM] | IC50 (Z138 cells; read-out: MTT Assay IC50 Z-138) [nM] | IC50 (MS751 cells; [1]) [nM] | IC50 (3T3 cells; read-out: MTT Assay IC50, 3T3) [nM] | IC50 (Z138 cells; [2]) [nM] | IC50 (MS751 cells; [3]) [nM] | IC50 (MS751 cells; MS751 cells, read-out: MTT Assay IC50 MS-751) [nM] |
| --- | --- | --- | --- | --- | --- | --- | --- |
| CC1(O)CCN(C(=O)c2ccc(-c3cc(C(F)(F)F)c4oc(CNC(=O)/C=C/c5ccc(N)nc5)cc4c3)cc2)CC1 [Compound 571, (E)-3-(6-aminopyridin-3-yl)-N-((5-(4-(4-hydroxy-4-methylpiperidine-1-carbonyl)phenyl)-7-(trifluoromethyl)benzofuran-2-yl)methyl)acrylamide] | > 10000 | < 100 | 100 to 5000 | – | – | – | – |
| Nc1ccc(/C=C/C(=O)NCc2cc3cc(-c4ccc(C(=O)N5CCC(F)(F)CC5)cc4)cc(C(F)(F)F)c3o2)cn1 [Compound 566, (E)-3-(6-aminopyridin-3-yl)-N-((5-(4-(4,4-difluoropiperidine-1-carbonyl)phenyl)-7-(trifluoromethyl)benzofuran-2-yl)methyl)acrylamide] | > 10000 | 100 to 5000 | 100 to 5000 | – | – | – | – |
| O=C(/C=C/c1cscn1)NCc1cc2cc(-c3ccc(C(=O)N4CCOCC4)cc3)cc(Cl)c2o1 [Compound 542] | > 10000 | 100 to 5000 | 100 to 5000 | – | – | – | – |
| CCS(=O)(=O)c1ccc(-c2cc(-c3ccc(F)cc3)c3oc(CNC(=O)/C=C/c4ccc(N)nc4)cc3c2)cc1 [Compound 709, (E)-3-(6-aminopyridin-3-yl)-N-((5-(4-(ethylsulfonyl)phenyl)-7-(4-fluorophenyl)benzofuran-2-yl)methyl)acrylamide] | – | – | – | > 10000 | < 100 | < 100 | – |
| Nc1ccc(/C=C/C(=O)NCc2cc3cc(-c4ccc(C(=O)N5CC(F)(F)C5)cc4)cc(C(F)(F)F)c3o2)cn1 [Compound 520, (E)-3-(6-aminopyridin-3-yl)-N-((5-(4-(3,3-difluoroazetidine-1-carbonyl)phenyl)-7-(trifluoromethyl)benzofuran-2-yl)methyl)acrylamide] | > 10000 | 100 to 5000 | 100 to 5000 | – | – | – | – |
| Nc1ccc(/C=C/C(=O)NCc2cc3cc(-c4ccc(C(=O)N5CC6(COC6)C5)cn4)cc(C(F)(F)F)c3o2)cn1 [Compound 625, (E)-N-((5-(5-(2-oxa-6-azaspiro[3.3]heptane-6-carbonyl)pyridin-2-yl)-7-(trifluoromethyl)benzofuran-2-yl)methyl)-3-(6-aminopyridin-3-yl)acrylamide] | 100 to 5000 | < 100 | < 100 | – | – | – | – |
| Nc1ccc(/C=C/C(=O)NCc2cc3cc(-c4ccc(C(=O)NNc5cnccn5)cc4)cc(Cl)c3o2)cn1 [Compound 505, (E)-3-(6-aminopyridin-3-yl)-N-((7-chloro-5-(4-(2-(pyrazin-2-yl)hydrazine-1-carbonyl)phenyl)benzofuran-2-yl)methyl)acrylamide] | > 10000 | 100 to 5000 | 100 to 5000 | – | – | – | – |
| Nc1ccc(/C=C/C(=O)NCc2cc3cc(-c4ccc(C(=O)N5CCC(F)(F)CC5)cc4)cc(-c4cccc(Cl)c4)c3o2)cn1 [Compound 741, (E)-3-(6-aminopyridin-3-yl)-N-((7-(3-chlorophenyl)-5-(4-(4,4-difluoropiperidine-1-carbonyl)phenyl)benzofuran-2-yl)methyl)acrylamide] | – | – | – | 100 to 5000 | < 100 | < 100 | – |
| Cc1noc(C)c1-c1cc(-c2ccc(F)cc2)c2oc(CNC(=O)/C=C/c3ccc(N)nc3)cc2c1 [Compound 694, (E)-3-(6-aminopyridin-3-yl)-N-((5-(3,5-dimethylisoxazol-4-yl)-7-(4-fluorophenyl)benzofuran-2-yl)methyl)acrylamide] | – | – | – | > 10000 | < 100 | 100 to 5000 | – |
| Nc1ccc(/C=C/C(=O)NCc2cc3cc(-c4ccc(C(=O)N5CCC(F)(F)CC5)cn4)cc(-c4ccncc4)c3o2)cn1 [Compound 666, (E)-3-(6-aminopyridin-3-yl)-N-((5-(5-(4,4-difluoropiperidine-1-carbonyl)pyridin-2-yl)-7-(pyridin-4-yl)benzofuran-2-yl)methyl)acrylamide] | – | – | – | 100 to 5000 | < 100 | < 100 | – |
| Cc1noc(C)c1C(O)c1ccc(-c2cc(Cl)c3oc(CNC(=O)/C=C/c4ccc(N)nc4)cc3c2)s1 (stereo not drawn) [Compound 578, (E)-3-(6-aminopyridin-3-yl)-N-((7-chloro-5-(5-((3,5-dimethylisoxazol-4-yl)(hydroxy)methyl)thiophen-2-yl)benzofuran-2-yl)methyl)acrylamide] | > 10000 | 5000 to 10000 | 5000 to 10000 | – | – | – | – |
| Nc1ccc(/C=C/C(=O)NCc2cc3cc(-c4ccc(C(=O)N5CC(F)(F)C5)cc4)cc(Cl)c3o2)cn1 [Compound 508, (E)-3-(6-aminopyridin-3-yl)-N-((7-chloro-5-(4-(3,3-difluoroazetidine-1-carbonyl)phenyl)benzofuran-2-yl)methyl)acrylamide] | > 10000 | 100 to 5000 | 100 to 5000 | – | – | – | – |
| Nc1ccc(/C=C/C(=O)NCc2cc3cc(-c4ccc(C(=O)N5CCC(F)(F)CC5)cn4)cc(C4CC4)c3o2)cn1 [Compound 659, (E)-3-(6-aminopyridin-3-yl)-N-((7-cyclopropyl-5-(5-(4,4-difluoropiperidine-1-carbonyl)pyridin-2-yl)benzofuran-2-yl)methyl)acrylamide] | – | – | – | > 10000 | 100 to 5000 | 100 to 5000 | – |
| O=C(/C=C/c1cccnc1)NCc1cc2cc(-c3ccc(C(=O)N4CCC(F)(F)CC4)cc3)cc(OC(F)(F)F)c2o1 [Compound 687, (E)-N-((5-(4-(4,4-difluoropiperidine-1-carbonyl)phenyl)-7-(trifluoromethoxy)benzofuran-2-yl)methyl)-3-(pyridin-3-yl)acrylamide] | – | – | – | 100 to 5000 | < 100 | < 100 | – |
| Nc1ccc(/C=C/C(=O)NCCc2cc3cc(-c4ccc(C(=O)N5CCOCC5)cc4)cc(Cl)c3o2)cn1 [Compound 532, (E)-3-(6-aminopyridin-3-yl)-N-(2-(7-chloro-5-(4-(morpholine-4-carbonyl)phenyl)benzofuran-2-yl)ethyl)acrylamide] | < 100 | < 100 | < 100 | – | – | – | – |
| Nc1ccc(/C=C/C(=O)NCc2cc3cc(-c4ccc(C(=O)N5CCC(F)(F)CC5)cc4)cc(-c4cc(F)cc(F)c4)c3o2)cn1 [Compound 734, (E)-3-(6-aminopyridin-3-yl)-N-((7-(3,5-difluorophenyl)-5-(4-(4,4-difluoropiperidine-1-carbonyl)phenyl)benzofuran-2-yl)methyl)acrylamide] | – | – | – | 100 to 5000 | < 100 | < 100 | – |
| Nc1ccc(/C=C/C(=O)NCc2cc3cc(-c4ccc(C(=O)N5CCC(Cl)CC5)cc4)cc(C(F)(F)F)c3o2)cn1 [Compound 607, (E)-3-(6-aminopyridin-3-yl)-N-((5-(4-(4-chloropiperidine-1-carbonyl)phenyl)-7-(trifluoromethyl)benzofuran-2-yl)methyl)acrylamide] | > 10000 | 100 to 5000 | 100 to 5000 | – | – | – | – |
| Nc1ccc(/C=C/C(=O)NCc2cc3cc(-c4cncc(C(=O)N5CCOCC5)c4)cc(Cl)c3o2)cn1 [Compound 534, (E)-3-(6-aminopyridin-3-yl)-N-((7-chloro-5-(5-(morpholine-4-carbonyl)pyridin-3-yl)benzofuran-2-yl)methyl)acrylamide] | > 10000 | 100 to 5000 | 100 to 5000 | – | – | – | – |
| CC1(O)CCN(C(=O)c2ccc(-c3cc(C(F)(F)F)c4oc(CNC(=O)/C=C/c5ccc(N)nc5)cc4c3)nc2)C1 (stereo not drawn) [Compound 627, (E)-3-(6-aminopyridin-3-yl)-N-((5-(5-(3-hydroxy-3-methylpyrrolidine-1-carbonyl)pyridin-2-yl)-7-(trifluoromethyl)benzofuran-2-yl)methyl)acrylamide] | > 10000 | < 100 | < 100 | – | – | – | – |
| Nc1ccc(/C=C/C(=O)NCc2cc3cc(-c4ccc(C(=O)N5CC(F)C5)cc4)cc(C(F)(F)F)c3o2)cn1 [Compound 524, (E)-3-(6-aminopyridin-3-yl)-N-((5-(4-(3-fluoroazetidine-1-carbonyl)phenyl)-7-(trifluoromethyl)benzofuran-2-yl)methyl)acrylamide] | > 10000 | 100 to 5000 | 100 to 5000 | – | – | – | – |
| Nc1ccc(/C=C/C(=O)NCc2cc3cc(-c4ccc(F)c(C(=O)N5CCOCC5)n4)cc(C(F)(F)F)c3o2)cn1 [Compound 579, (E)-3-(6-aminopyridin-3-yl)-N-((5-(5-fluoro-6-(morpholine-4-carbonyl)pyridin-2-yl)-7-(trifluoromethyl)benzofuran-2-yl)methyl)acrylamide] | > 10000 | < 100 | < 100 | – | – | – | – |
| Cc1cc(F)ncc1-c1cc(-c2ccc(C(=O)N3CCC(F)(F)CC3)cc2)cc2cc(CNC(=O)/C=C/c3ccc(N)nc3)oc12 [Compound 743, (E)-3-(6-aminopyridin-3-yl)-N-((5-(4-(4,4-difluoropiperidine-1-carbonyl)phenyl)-7-(6-fluoro-4-methylpyridin-3-yl)benzofuran-2-yl)methyl)acrylamide] | – | – | – | 100 to 5000 | < 100 | < 100 | – |
| Nc1ccc(/C=C/C(=O)NCc2cc3cc(-c4ccc(C(=O)NNc5ccccn5)cc4)cc(C(F)(F)F)c3o2)cn1 [Compound 518, (E)-3-(6-aminopyridin-3-yl)-N-((5-(4-(2-(pyridin-2-yl)hydrazinecarbonyl)phenyl)-7-(trifluoromethyl)benzofuran-2-yl)methyl)acrylamide] | > 10000 | 100 to 5000 | – | – | – | – | 100 to 5000 |
